Data reported in patent publication US10988477B2 (Merck Patent GmbH, priority 2018, dated 2021).

Tests used:
GCN2 kinase = GCN2 kinase (Homo sapiens, UniProt Q9P2K8); experiment: GCN2 enzyme inhibition assay (Transcreener ADP2 fluorescence polarization); format: biochemical; settings: 280 μM ATP
Outline: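 Run at 25 °C in 25 mM Tris-HCl pH 7.5, 50 mM NaCl, 10 mM MgCl2, 1 mM DTT with 4 nM GCN2, 280 μM ATP and 200 μM (RS)7 peptide; compound (0–8 μM final) preincubated 10 min, reaction 1 h. ADP read by antibody/tracer FP; IC50 and Ki(app) from tight-binding fit.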

[1] = target: intracellular GCN2 (phosphorylation of the GCN2 substrate eIF2α) (Homo sapiens, UniProt Q9P2K8); experiment: GCN2 cellular inhibition assay (AlphaScreen SureFire P-eIF2α Ser51, borrelidin-treated U2OS cells); format: cell-based; settings: biomarker assay, phosphorylated eIF2α Ser51 in borrelidin-treated U2OS cells
Outline: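 Compound effect on GCN2 is gauged by eIF2α Ser51 phosphorylation in borrelidin-challenged U2OS cells (10 μM, 1 h). Top compound level is 40 μM final.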

[2] = compounds of Formula II, 4 nM GCN2 kinase
[3] = Enzyme activity for compounds of Formula IV, Ki(app), 25° C.

Chain of GCN2 kinase (Q9P2K8 whole entry): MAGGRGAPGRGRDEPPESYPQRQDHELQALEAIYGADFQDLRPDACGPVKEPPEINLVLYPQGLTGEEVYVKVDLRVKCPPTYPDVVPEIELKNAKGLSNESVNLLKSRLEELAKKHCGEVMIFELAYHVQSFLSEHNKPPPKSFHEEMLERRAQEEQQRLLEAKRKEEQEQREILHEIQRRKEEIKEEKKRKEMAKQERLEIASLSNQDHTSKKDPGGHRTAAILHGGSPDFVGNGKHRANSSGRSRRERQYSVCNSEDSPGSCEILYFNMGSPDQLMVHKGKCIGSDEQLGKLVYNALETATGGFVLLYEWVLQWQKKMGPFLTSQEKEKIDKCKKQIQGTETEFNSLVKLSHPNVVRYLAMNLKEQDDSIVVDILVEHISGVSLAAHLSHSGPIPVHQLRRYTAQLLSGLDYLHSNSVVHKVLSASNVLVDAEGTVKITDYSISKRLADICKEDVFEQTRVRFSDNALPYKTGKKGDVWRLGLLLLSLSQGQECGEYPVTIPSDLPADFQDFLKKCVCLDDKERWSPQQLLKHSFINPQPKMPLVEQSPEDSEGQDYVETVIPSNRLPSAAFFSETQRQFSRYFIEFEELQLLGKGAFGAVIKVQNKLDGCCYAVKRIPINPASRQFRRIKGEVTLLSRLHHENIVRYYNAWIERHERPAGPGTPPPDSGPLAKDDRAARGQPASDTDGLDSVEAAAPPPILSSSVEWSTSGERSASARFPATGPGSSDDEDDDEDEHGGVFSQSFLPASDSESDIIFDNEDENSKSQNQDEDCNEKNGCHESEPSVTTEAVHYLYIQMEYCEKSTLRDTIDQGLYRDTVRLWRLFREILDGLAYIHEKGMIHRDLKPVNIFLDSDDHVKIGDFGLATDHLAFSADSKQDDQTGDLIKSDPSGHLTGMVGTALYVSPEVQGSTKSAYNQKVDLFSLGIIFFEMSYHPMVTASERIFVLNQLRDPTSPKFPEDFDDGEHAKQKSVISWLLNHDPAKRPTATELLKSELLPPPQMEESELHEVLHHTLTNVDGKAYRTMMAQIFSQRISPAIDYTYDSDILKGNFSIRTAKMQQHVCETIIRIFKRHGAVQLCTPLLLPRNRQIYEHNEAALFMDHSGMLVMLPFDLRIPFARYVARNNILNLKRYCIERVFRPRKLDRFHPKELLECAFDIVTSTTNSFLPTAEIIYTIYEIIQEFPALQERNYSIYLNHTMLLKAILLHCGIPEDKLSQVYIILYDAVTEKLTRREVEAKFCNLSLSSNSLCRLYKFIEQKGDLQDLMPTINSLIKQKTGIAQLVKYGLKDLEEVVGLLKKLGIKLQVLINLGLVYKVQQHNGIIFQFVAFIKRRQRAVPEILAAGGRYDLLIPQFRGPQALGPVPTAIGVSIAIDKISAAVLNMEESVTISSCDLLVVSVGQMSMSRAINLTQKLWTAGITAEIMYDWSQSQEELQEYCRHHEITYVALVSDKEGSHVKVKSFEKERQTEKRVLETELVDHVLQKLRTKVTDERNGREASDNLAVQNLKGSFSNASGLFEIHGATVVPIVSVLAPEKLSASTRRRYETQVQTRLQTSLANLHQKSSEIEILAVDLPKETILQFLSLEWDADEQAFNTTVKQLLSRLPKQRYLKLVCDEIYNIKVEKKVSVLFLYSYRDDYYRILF
Chain of intracellular GCN2 (phosphorylation of the GCN2 substrate eIF2α) (Q9P2K8 whole entry): as above

SMILES	Ki (GCN2 kinase; [2]) [nM]	IC50 ([1]; compounds of Formula II) [nM]	Ki (GCN2 kinase; [3]) [nM]	IC50 ([1]; compounds of Formula IV) [nM]
CC(NS(C)(=O)=O)[C@@H]1CN(c2cc(-c3cnc4ccc(C(F)F)nn34)ncn2)CCO1 (single isomer, unassigned) [II-510]	10 to 1000	500 to 5000	–	–
CS(=O)(=O)C1CCCN(c2cc(-c3cnc4ccc(C(F)F)nn34)ncn2)C1 (single isomer, unassigned) [II-529, 6-(Difluoromethyl)-3-(6-(3-(methylsulfonyl)piperidin-1-yl)pyrimidin-4-yl)imidazo[1,2-b]pyridazine]	10 to 1000	500 to 5000	–	–
CC1CC(N=S(C)(C)=O)CN(c2cc(-c3cnc4ccc(C(F)F)nn34)ncn2)C1 (single isomer, unassigned) [II-540, ((1-(6-(6-(Difluoromethyl)imidazo[1,2-b]pyridazin-3-yl)pyrimidin-4-yl)-5-methylpiperidin-3-yl)imino)dimethyl-λ^6-sulfanone]	10 to 1000	500 to 5000	–	–
C[C@@H]1CC(N=S(C)(C)=O)CN(c2cc(-c3cnc4ccc(C(F)F)nn34)ncn2)C1 (single isomer, unassigned) [II-541]	< 10	< 500	–	–
CCN1CCN(c2cc(-c3cnc4ccc(C(F)F)nn34)ncn2)C(C)C1CNS(C)(=O)=O (single isomer, unassigned) [II-542, N-((4-(6-(6-(Difluoromethyl)imidazo[1,2-b]pyridazin-3-yl)pyrimidin-4-yl)-1-ethyl-3-methylpiperazin-2-yl)methyl)methanesulfonamide]	< 10	< 500	–	–
CCN1CCN(c2cc(-c3cnc4ccc(C(F)F)nn34)ncn2)C(C)C1CNS(C)(=O)=O (single isomer, unassigned) [II-543, N-((4-(6-(6-(difluoromethyl)imidazo[1,2-b]pyridazin-3-yl)pyrimidin-4-yl)-1-ethyl-3-methylpiperazin-2-yl)methyl)methanesulfonamide]	10 to 1000	500 to 5000	–	–
CC1CC(CNS(C)(=O)=O)C(C)N(c2cc(-c3cnc4ccc(C(F)F)nn34)ncn2)C1 (single isomer, unassigned) [II-545, N-((1-(6-(6-(Difluoromethyl)imidazo[1,2-b]pyridazin-3-yl)pyrimidin-4-yl)-2,5-dimethylpiperidin-3-yl)methyl)methanesulfonamide]	10 to 1000	500 to 5000	–	–
CC1CC(CNS(C)(=O)=O)C(C)N(c2cc(-c3cnc4ccc(C(F)F)nn34)ncn2)C1 (single isomer, unassigned) [II-546, N-((1-(6-(6-(Difluoromethyl)imidazo[1,2-b]pyridazin-3-yl)pyrimidin-4-yl)-2,5-dimethylpiperidin-3-yl)methyl)methanesulfonamide]	< 10	< 500	–	–
C[C@H]1[C@@H](N=S(C)(C)=O)CCCN1c1cc(-c2cnc3ccc(C(F)F)nn23)ncn1 (single isomer, unassigned) [II-593]	< 10	< 500	–	–
C[C@@H]1C[C@H](N=S(C)(C)=O)[C@H](C)N(c2cc(-c3cnc4ccc(C(F)F)nn34)ncn2)C1 (single isomer, unassigned) [II-631]	< 10	< 500	–	–
CCC1CC(N=S(C)(C)=O)CN(c2cc(-c3cnc4ccc(C(F)F)nn34)ncn2)C1 (single isomer, unassigned) [II-650, ((1-(6-(6-(Difluoromethyl)imidazo[1,2-b]pyridazin-3-yl)pyrimidin-4-yl)-5-ethylpiperidin-3-yl)imino)dimethyl-λ^6-sulfanone]	< 10	< 500	–	–
CC1CN(c2cc(-c3cnc4ccc(C(F)F)nn34)ncn2)C(C)C(c2cn[nH]c2)N1 (single isomer, unassigned) [II-652, 6-(Difluoromethyl)-3-(6-(2,5-dimethyl-3-(1H-pyrazol-4-yl)piperazin-1-yl)pyrimidin-4-yl)imidazo[1,2-b]pyridazine]	10 to 1000	500 to 5000	–	–
CC1CC(C(N)=O)C(C)N(c2cc(-c3cnc4ccc(C(F)(F)F)nn34)ncn2)C1 (single isomer, unassigned) [II-717, 2,5-Dimethyl-1-[6-[6-(trifluoromethyl)imidazo[1,2-b]pyridazin-3-yl]pyrimidin-4-yl]piperidine-3-carboxamide]	< 10	< 500	–	–
CC1CC(N=S(C)(C)=O)CN(c2cc(-c3cnc4ccc(C(F)F)nn34)c(F)cn2)C1 (single isomer, unassigned) [II-723, ((1-(4-(6-(Difluoromethyl)imidazo[1,2-b]pyridazin-3-yl)-5-fluoropyridin-2-yl)-5-methylpiperidin-3-yl)imino)dimethyl-λ^6-sulfanone]	10 to 1000	500 to 5000	–	–

Other lines, results leading:

Ki (GCN2 kinase; [2]) [nM]	IC50 ([1]; compounds of Formula II) [nM]	Ki (GCN2 kinase; [3]) [nM]	IC50 ([1]; compounds of Formula IV) [nM]	SMILES
–	–	10 to 100	500 to 5000	FC(F)(F)c1cn2c(-c3nccc(N4CCOC(c5cn[nH]c5)C4)n3)cnc2cn1 (single isomer, unassigned) [IV-7, 2-(1H-Pyrazol-4-yl)-4-(2-(6-(trifluoromethyl)imidazo[1,2-a]pyrazin-3-yl)pyrimidin-4-yl)morpholine]
–	–	< 10	500 to 5000	FC(F)(F)c1cn2c(-c3nccc(N4CCOC(c5cn[nH]c5)C4)n3)cnc2cn1 (single isomer, unassigned) [IV-8, 2-(1H-Pyrazol-4-yl)-4-(2-(6-(trifluoromethyl)imidazo[1,2-a]pyrazin-3-yl)pyrimidin-4-yl)morpholine]
–	–	< 10	< 500	CC1C(c2cn[nH]c2)OCCN1c1ccnc(-c2cnc3cnc(Cl)cn23)n1 (single isomer, unassigned) [IV-9, 4-(2-(6-Chloroimidazo[1,2-a]pyrazin-3-yl)pyrimidin-4-yl)-3-methyl-2-(1H-pyrazol-4-yl)morpholine]
–	–	10 to 100	< 500	CC1CN(c2ccnc(-c3cnc4cnc(C(F)(F)F)cn34)n2)CC(c2cn[nH]c2)O1 (single isomer, unassigned) [IV-13, 2-Methyl-6-(1H-pyrazol-4-yl)-4-(2-(6-(trifluoromethyl)imidazo[1,2-a]pyrazin-3-yl)pyrimidin-4-yl)morpholine]
–	–	< 10	< 500	CC1CN(c2ccnc(-c3cnc4cnc(C(F)(F)F)cn34)n2)CC(c2cn[nH]c2)O1 (single isomer, unassigned) [IV-14, 2-Methyl-6-(1H-pyrazol-4-yl)-4-(2-(6-(trifluoromethyl)imidazo[1,2-a]pyrazin-3-yl)pyrimidin-4-yl)morpholine]
–	–	10 to 100	500 to 5000	CC1CN(c2ccnc(-c3cnc4cnc(C(F)(F)F)cn34)n2)CC(c2cn[nH]c2)O1 (single isomer, unassigned) [IV-15, 2-Methyl-6-(1H-pyrazol-4-yl)-4-(2-(6-(trifluoromethyl)imidazo[1,2-a]pyrazin-3-yl)pyrimidin-4-yl)morpholine]
–	–	10 to 100	500 to 5000	CC1CN(c2ccnc(-c3cnc4cnc(C(F)(F)F)cn34)n2)CC(c2cn[nH]c2)O1 (single isomer, unassigned) [IV-16, 2-Methyl-6-(1H-pyrazol-4-yl)-4-(2-(6-(trifluoromethyl)imidazo[1,2-a]pyrazin-3-yl)pyrimidin-4-yl)morpholine]
–	–	10 to 100	500 to 5000	CC1CN(c2ccnc(-c3cnc4cnc(C#N)cn34)n2)CC(c2cn[nH]c2)O1 (single isomer, unassigned) [IV-191, 3-(4-(2-Methyl-6-(1H-pyrazol-4-yl)morpholino)pyrimidin-2-yl)imidazo[1,2-a]pyrazine-6-carbonitrile]
–	–	< 10	500 to 5000	CC1CN(c2ccnc(-c3cnc4cnc(Cl)cn34)n2)CC(c2cn[nH]c2)O1 (single isomer, unassigned) [IV-192, 4-(2-(6-Chloroimidazo[1,2-a]pyrazin-3-yl)pyrimidin-4-yl)-2-methyl-6-(1H-pyrazol-4-yl)morpholine]
–	–	10 to 100	500 to 5000	CC1CN(c2nccc(-c3cnc4cnc(C(F)(F)F)cn34)n2)CC(c2cn[nH]c2)O1 (single isomer, unassigned) [IV-199, 2-Methyl-6-(1H-pyrazol-4-yl)-4-(4-(6-(trifluoromethyl)imidazo[1,2-a]pyrazin-3-yl)pyrimidin-2-yl)morpholine]
–	–	< 10	500 to 5000	CC1CN(c2nccc(-c3cnc4cnc(C(F)(F)F)cn34)n2)CC(c2cn[nH]c2)O1 (single isomer, unassigned) [IV-200, 2-Methyl-6-(1H-pyrazol-4-yl)-4-(4-(6-(trifluoromethyl)imidazo[1,2-a]pyrazin-3-yl)pyrimidin-2-yl)morpholine]
–	–	< 10	< 500	CC1CN(c2nccc(-c3cnc4cnc(C(F)(F)F)cn34)n2)CC(c2cn[nH]c2)O1 (single isomer, unassigned) [IV-201, 2-Methyl-6-(1H-pyrazol-4-yl)-4-(4-(6-(trifluoromethyl)imidazo[1,2-a]pyrazin-3-yl)pyrimidin-2-yl)morpholine]
–	–	10 to 100	500 to 5000	CC1CN(c2nccc(-c3cnc4cnc(C(F)(F)F)cn34)n2)CC(c2cn[nH]c2)O1 (single isomer, unassigned) [IV-202, 2-Methyl-6-(1H-pyrazol-4-yl)-4-(4-(6-(trifluoromethyl)imidazo[1,2-a]pyrazin-3-yl)pyrimidin-2-yl)morpholine]
–	–	10 to 100	500 to 5000	CC1CN(c2ccnc(-c3cnc4cnc(Cl)cn34)n2)CC(c2cn[nH]c2)N1 (single isomer, unassigned) [IV-213, 6-Chloro-3-(4-(3-methyl-5-(1H-pyrazol-4-yl)piperazin-1-yl)pyrimidin-2-yl)imidazo[1,2-a]pyrazine]
